Experimental findings from patent US20070049591A1, “Inhibitors of MAPK/Erk Kinase” (KALYPSYS, INC., priority 2005, published 2007) are described below.

Each structure is given as a SMILES string. Where only a bound is given, the exact number is not on record here.

The experiment addresses T1, human phospho-Mek1 / non-phosphorylated Mek1 (Homo sapiens, UniProt Q02750).
T1 construct: GST (N); His6 (C); purchased Upstate 14-429 (phospho-Mek1) or 14-420 (non-phosphorylated Mek1)
The experiment in a line: In vitro Mek1 Kinase Assay. Type of experiment: biochemical. The following applies: recombinant GST/His6-tagged Mek1, 2 μM ATP, 2 hours at 30° C., PKLight luminescence readout. As to the method: In vitro Mek1 Kinase Assay
2.5 μl of Mek1 kinase buffer (10 mM MOPS [pH 7.2], 25 mM sodium glycerophosphate, 5 mM EGTA [pH 8.0], 1 mM sodium orthovanadate, 1 mM dithiothreitol, 10 mM MgCl2, 0.1% Brij-35, 0.3 mg/ml bovine serum albumin) containing either 5 ng of high specific activity, recombinant N-terminal GST-tagged, C-terminal His6-tagged human phospho-Mek1 (Upstate Cat. 14-429), or 200 ng of low specific activity, non-phosphorylated Mek1 (Upstate Cat. 14-420), is dispensed into one well of a 1536 multi-well white solid plate. 50 nl of 100× concentration of test compound in dimethyl sulfoxide (DMSO) is dispensed to the well by passive pin transfer and incubated for 15 minutes at room temperature (22° C.). 2.5 μl of Mek1 kinase buffer containing 2 μM ATP is then dispensed and the kinase reaction is allowed to incubate at 30° C. for 2 hours. The assay plates are lidded and maintained in a humidified environment. After 2 hours, 2.5 μl of PKLight protein kinase assay reagent (Cambrex) is dispensed. After an additional 5 minute incubation at room temperature, luminescence activity is measured on a suitable multi-mode plate reader. Inhibition of Mek1 kinase causes an associated increase in luminescence activity that is proportional to compound concentration. Negative control activity is measured with DMSO lacking any test compound. Positive control activity is measured with (R)—N— (2,3-dihydroxypropoxy)-3,4-fluoro4-iodophenylamino)benzamide [Thompson, N. and Lyons, J., Curr Opin Pharmacol, 5:350-356, 2005 (PD-0325901)]. Efficacy is measured as a percentage of positive control activity.

T1 sequence (Q02750 whole entry): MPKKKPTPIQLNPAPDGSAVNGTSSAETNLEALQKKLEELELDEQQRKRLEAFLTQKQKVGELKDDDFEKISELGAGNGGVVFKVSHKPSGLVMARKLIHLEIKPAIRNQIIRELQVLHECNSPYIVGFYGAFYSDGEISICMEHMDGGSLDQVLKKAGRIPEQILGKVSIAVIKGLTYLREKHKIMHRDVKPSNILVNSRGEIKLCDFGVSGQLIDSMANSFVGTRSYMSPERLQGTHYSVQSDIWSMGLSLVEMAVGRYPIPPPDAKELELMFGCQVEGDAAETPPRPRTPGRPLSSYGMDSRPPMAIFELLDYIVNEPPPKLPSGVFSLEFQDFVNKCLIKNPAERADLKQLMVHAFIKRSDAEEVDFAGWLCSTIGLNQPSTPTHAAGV

Consider `CN(C)CCNc1ccn2ncc(-c3ccc(Cl)cc3)c2n1` [Example 21, N1-(3-(4-chlorophenyl)pyrazolo[1,5-a]pyrimidin-5-yl)-N2,N2-dimethylethane-1,2-diamine], for which the IC50 was more than 10 µM.
Consider `c1nc2nc[nH]c(NC3CCCCCC3)c-2n1` [Example 17, N-cycloheptyl-9H-purin-6-amine], for which the IC50 was more than 10 µM.
Turning to `c1ccc2c(c1)CCN2c1ncnc2[nH]cnc12` [Example 5, 6-(indolin-1-yl)-9H-purine], the IC50 was more than 10 µM.
Take `N#Cc1ccc(-c2cnc3ccc(NCCc4cccnc4)nn23)cc1` [Example 20, 4-(6-(2-(pyridin-3-yl)ethylamino)imidazo[1,2-b]pyridazin-3-yl)benzonitrile]: the half-maximal inhibitory concentration (IC50) was not above 10 µM.
With `COc1cncc(-c2cnc3ccc(NC4CCOCC4)nn23)c1` [Example 14, 3-(5-methoxypyridin-3-yl)-N-(tetrahydro-2H-pyran-4-yl)imidazo[1,2-b]pyridazin-6-amine], the IC50 was more than 10 µM.
As to `O=C(O)c1ccc(-c2cnc3ccc(NC4CCOCC4)nn23)cc1` [Example 13, 4-(6-(tetrahydro-2H-pyran-4-ylamino)imidazo[1,2-b]pyridazin-3-yl)benzoic acid], the concentration for half-maximal inhibition (IC50) is not above 10 µM.
For the molecule `Cn1cc(-c2cnc3ccc(NCc4cccs4)nn23)cn1` [Example 11], the IC50 is not above 10 µM.
Take `N#Cc1ccc(-c2cnc3ccc(NCCc4ccccn4)nn23)cc1` [Example 19, 4-(6-(2-(pyridin-2-yl)ethylamino)imidazo[1,2-b]pyridazin-3-yl)benzonitrile]: the IC50 is not above 10 µM.
Take `N#Cc1ccc(-c2cnc3ccc(NC4CCOCC4)nn23)cc1` [Example 12, 4-(6-(tetrahydro-2H-pyran-4-ylamino)imidazo[1,2-b]pyridazin-3-yl)benzonitrile]: the IC50 is not above 10 µM.
For `CC1CCN(c2ncnc3[nH]cnc23)CC1` [Example 6, 6-(4-methylpiperidin-1-yl)-9H-purine], the IC50 was more than 10 µM.
For the molecule `CCCNc1ccc2ncc(-c3ccc(C(=O)O)cc3)n2n1` [Example 22, 4-(6-(propylamino)imidazo[1,2-b]pyridazin-3-yl)benzoic acid], the IC50 is more than 10 µM.
With `c1nc(NC2CCCC2)c2nc[nH]c2n1` [Example 16, N-cyclopentyl-9H-purin-6-amine], the half-inhibitory concentration (IC50) was more than 10 µM.
For the molecule `CC(C)(C)n1nc(-c2ccc(F)cc2)c2c(N)ncnc21` [Example 3, 1-tert-butyl-3-(4-fluorophenyl)-1H-pyrazolo[3,4-d]pyrimidin-4-amine], the IC50 is not above 10 µM.
As for `COc1cc(OC)c2c(c1)ncc1c(C)nn(-c3ccccc3)c12` [Example 7, 7,9-dimethoxy-3-methyl-1-phenyl-1H-pyrazolo[4,3-c]quinoline], the concentration for half-maximal inhibition (IC50) was not above 10 µM.
On to `O=C(O)c1ccc(-c2cnc3ccc(NCc4cccs4)nn23)cc1` [Example 9, 4-(6-(thiophen-2-ylmethylamino)imidazo[1,2-b]pyridazin-3-yl)benzoic acid], for which the IC50 is not above 10 µM.
As to `Cc1c([N+](=O)[O-])c2ccc(O)cc2n1-c1ccccc1` [Example 2, 2-methyl-3-nitro-1-phenyl-1H-indol-6-ol], the IC50 is not above 10 µM.
For `O=C(O)c1ccc(-c2cnc3ccc(NCc4ccc(F)cc4)nn23)cc1` [Example 10, 4-(6-(4-fluorobenzylamino)imidazo[1,2-b]pyridazin-3-yl)benzoic acid], the IC50 is not above 10 µM.
Regarding `CCN(c1ncnc2[nH]cnc12)C1CCCCC1` [Example 4, N-cyclohexyl-N-ethyl-9H-purin-6-anime], the IC50 is not above 10 µM.
For the molecule `CC(=O)c1ccc(-c2cnc3ccc(NCc4cccs4)nn23)s1` [Example 8, 1-(5-(6-(thiophen-2-ylmethylamino)imidazo[1,2-b]pyridazin-3-yl)thiophen-2-yl)ethanone], the IC50 was more than 10 µM.
As to `N#Cc1ccc(-c2cnc3ccc(NCCCO)nn23)cc1` [Example 18, 4-(6-(3-hydroxypropylamino)imidazo [1,2-b]pyridazin-3-yl)benzonitrile], the IC50 is not above 10 µM.
For `c1ccc2c(c1)[nH]c1ncnc(N3CCOCC3)c12` [Example 1, 4-(9H-pyrimido[4,5-b]indol-4-yl)morpholine], the IC50 is not above 10 µM.
The figure for `O=C(O)c1ccc(-c2cnc3ccc(NC4CCC(O)CC4)nn23)cc1` (stereo not shown) [Example 15, 4-(6-(4-hydroxycyclohexylamino)imidazo[1,2-b]pyridazin-3-yl)benzoic acid] is not above 10 µM.

As usually defined, the IC50 is the midpoint of a concentration-inhibition curve.
